Measurements published in PubChem BioAssay (NCI).
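Results reflect a 48-hour exposure of cells in 96-well plates to compound at five concentrations. Abbreviation: GI50, concentration required for 50% inhibition of growth. TGI is the concentration that stops growth completely.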

system: 786-0 renal; experiment: NCI-60 cell line screen, 48 h

In order of falling TGI:
1. Cc1cc(N(CCC#N)CCC#N)ccc1/C(N=Nc1ccc(C(=O)O)cc1)=N\NC(=O)c1cc(Cl)ccc1O  39.8 µM
2. COc1ccc(-c2nc(/C=N/Nc3cc(C)nc4ccc(Cl)cc34)c(C)o2)cc1  2.98 µM

With `COc1ccc(-c2nc(/C=N/Nc3cc(C)nc4ccc(Cl)cc34)c(C)o2)cc1` the GI50 was 1.56 µM.

system: OVCAR-4 ovarian; experiment: NCI-60 cell line screen, 48 h

Compared with `O=c1oc(Cl)c(Cl)c2ccccc12`, `Cc1ccc(C(CC(=O)c2ccccc2)C2C(=O)NC(=O)NC2=O)cc1` (stereo not drawn) is higher in GI50: 30 µM for the first, greater than 100 µM for the second.

Work on `COc1ccc(-c2nc(/C=N/Nc3cc(C)nc4ccc(Cl)cc34)c(C)o2)cc1` yielded a GI50 of 1.53 µM.

`O=c1oc(Cl)c(Cl)c2ccccc12` and `Cc1ccc(C(CC(=O)c2ccccc2)C2C(=O)NC(=O)NC2=O)cc1` (stereo not drawn) cannot be ordered by TGI: greater than 100 µM for the first, greater than 100 µM for the second.

First: Cc1cc(N(CCC#N)CCC#N)ccc1/C(N=Nc1ccc(C(=O)O)cc1)=N\NC(=O)c1cc(Cl)ccc1O
Second: COc1ccc(-c2nc(/C=N/Nc3cc(C)nc4ccc(Cl)cc34)c(C)o2)cc1
The TGI of the first is 33-fold higher: 97 µM for the first, 2.9 µM for the second.

system: SR leukemia; experiment: NCI-60 cell line screen, 48 h

In the case of `Cc1cc(N(CCC#N)CCC#N)ccc1/C(N=Nc1ccc(C(=O)O)cc1)=N\NC(=O)c1cc(Cl)ccc1O`, the TGI is reported as greater than 100 µM.

system: SNB-75 CNS; experiment: NCI-60 cell line screen, 48 h

Compared with `O=c1oc(Cl)c(Cl)c2ccccc12`, `Cc1ccc(C(CC(=O)c2ccccc2)C2C(=O)NC(=O)NC2=O)cc1` (stereo not drawn) is higher in GI50: 24.7 µM for the first, greater than 100 µM for the second.

In the case of `COc1ccc(-c2nc(/C=N/Nc3cc(C)nc4ccc(Cl)cc34)c(C)o2)cc1`, the GI50 is reported as 1.44 µM.

Compared with `O=c1oc(Cl)c(Cl)c2ccccc12`, `Cc1ccc(C(CC(=O)c2ccccc2)C2C(=O)NC(=O)NC2=O)cc1` (stereo not drawn) is higher in TGI: 59.3 µM for the first, greater than 100 µM for the second.

`O=C(NCCNCCCNC(=O)c1cc(-c2ccccc2)nc2ccccc12)c1cccc(O)c1O` and `Cc1cc(N(CCC#N)CCC#N)ccc1/C(N=Nc1ccc(C(=O)O)cc1)=N\NC(=O)c1cc(Cl)ccc1O` are within 1.5-fold of each other in TGI: 60.9 µM for the first, 53.5 µM for the second.

Compound `COc1ccc(-c2nc(/C=N/Nc3cc(C)nc4ccc(Cl)cc34)c(C)o2)cc1` has a TGI of 2.93 µM.

system: SK-OV-3 ovarian; experiment: NCI-60 cell line screen, 48 h

Going from `O=c1oc(Cl)c(Cl)c2ccccc12` to `Cc1ccc(C(CC(=O)c2ccccc2)C2C(=O)NC(=O)NC2=O)cc1` (stereo not drawn), the GI50 rises from 59.8 µM to greater than 100 µM.

`COc1ccc(-c2nc(/C=N/Nc3cc(C)nc4ccc(Cl)cc34)c(C)o2)cc1` showed a GI50 of 1.65 µM.

`O=c1oc(Cl)c(Cl)c2ccccc12` and `Cc1ccc(C(CC(=O)c2ccccc2)C2C(=O)NC(=O)NC2=O)cc1` (stereo not drawn) cannot be ordered by TGI: greater than 100 µM for the first, greater than 100 µM for the second.

First: O=C(NCCNCCCNC(=O)c1cc(-c2ccccc2)nc2ccccc12)c1cccc(O)c1O
Second: Cc1cc(N(CCC#N)CCC#N)ccc1/C(N=Nc1ccc(C(=O)O)cc1)=N\NC(=O)c1cc(Cl)ccc1O
The TGI of the first is higher: greater than 100 µM for the first, 64.5 µM for the second.

`COc1ccc(-c2nc(/C=N/Nc3cc(C)nc4ccc(Cl)cc34)c(C)o2)cc1` was tested, and the TGI was 3.06 µM.

system: UO-31 renal; experiment: NCI-60 cell line screen, 48 h

First: O=c1oc(Cl)c(Cl)c2ccccc12
Second: Cc1ccc(C(CC(=O)c2ccccc2)C2C(=O)NC(=O)NC2=O)cc1 (stereo not drawn)
The GI50 of the first is lower: 22.4 µM for the first, greater than 100 µM for the second.

Compound `COc1ccc(-c2nc(/C=N/Nc3cc(C)nc4ccc(Cl)cc34)c(C)o2)cc1` has a GI50 of 1.6 µM.

First: O=c1oc(Cl)c(Cl)c2ccccc12
Second: Cc1ccc(C(CC(=O)c2ccccc2)C2C(=O)NC(=O)NC2=O)cc1 (stereo not drawn)
The TGI of the first is lower: 47.9 µM for the first, greater than 100 µM for the second.

Going from `O=C(NCCNCCCNC(=O)c1cc(-c2ccccc2)nc2ccccc12)c1cccc(O)c1O` to `Cc1cc(N(CCC#N)CCC#N)ccc1/C(N=Nc1ccc(C(=O)O)cc1)=N\NC(=O)c1cc(Cl)ccc1O`, the TGI rises from 14.9 µM to 68 µM (4.6-fold).

`COc1ccc(-c2nc(/C=N/Nc3cc(C)nc4ccc(Cl)cc34)c(C)o2)cc1` gave a TGI of 3 µM.

system: MALME-3M melanoma; experiment: NCI-60 cell line screen, 48 h

First: O=c1oc(Cl)c(Cl)c2ccccc12
Second: Cc1ccc(C(CC(=O)c2ccccc2)C2C(=O)NC(=O)NC2=O)cc1 (stereo not drawn)
The GI50 of the first is lower: 50 µM for the first, greater than 100 µM for the second.

With `COc1ccc(-c2nc(/C=N/Nc3cc(C)nc4ccc(Cl)cc34)c(C)o2)cc1` the GI50 was 1.84 µM.

`O=c1oc(Cl)c(Cl)c2ccccc12` and `Cc1ccc(C(CC(=O)c2ccccc2)C2C(=O)NC(=O)NC2=O)cc1` (stereo not drawn) cannot be ordered by TGI: greater than 100 µM for the first, greater than 100 µM for the second.

First: O=C(NCCNCCCNC(=O)c1cc(-c2ccccc2)nc2ccccc12)c1cccc(O)c1O
Second: Cc1cc(N(CCC#N)CCC#N)ccc1/C(N=Nc1ccc(C(=O)O)cc1)=N\NC(=O)c1cc(Cl)ccc1O
The TGI of the first is lower: 20.2 µM for the first, greater than 100 µM for the second.

`COc1ccc(-c2nc(/C=N/Nc3cc(C)nc4ccc(Cl)cc34)c(C)o2)cc1` was tested, and the TGI was 3.43 µM.

system: RXF 393 renal; experiment: NCI-60 cell line screen, 48 h

Compared with `O=c1oc(Cl)c(Cl)c2ccccc12`, `Cc1ccc(C(CC(=O)c2ccccc2)C2C(=O)NC(=O)NC2=O)cc1` (stereo not drawn) is higher in GI50: 24.8 µM for the first, greater than 100 µM for the second.

With `COc1ccc(-c2nc(/C=N/Nc3cc(C)nc4ccc(Cl)cc34)c(C)o2)cc1` the GI50 was 1.64 µM.

Going from `O=c1oc(Cl)c(Cl)c2ccccc12` to `Cc1ccc(C(CC(=O)c2ccccc2)C2C(=O)NC(=O)NC2=O)cc1` (stereo not drawn), the TGI rises from 52.2 µM to greater than 100 µM.

Going from `O=C(NCCNCCCNC(=O)c1cc(-c2ccccc2)nc2ccccc12)c1cccc(O)c1O` to `Cc1cc(N(CCC#N)CCC#N)ccc1/C(N=Nc1ccc(C(=O)O)cc1)=N\NC(=O)c1cc(Cl)ccc1O`, the TGI rises from 47.7 µM to 78.9 µM (1.7-fold).

Work on `COc1ccc(-c2nc(/C=N/Nc3cc(C)nc4ccc(Cl)cc34)c(C)o2)cc1` yielded a TGI of 3.14 µM.

system: HOP-62 NSCLC; experiment: NCI-60 cell line screen, 48 h

`O=c1oc(Cl)c(Cl)c2ccccc12` was tested, and the GI50 was 25.9 µM.

`O=c1oc(Cl)c(Cl)c2ccccc12` was tested, and the TGI was 48.9 µM.
